Like-named read-outs stand apart in the source and are kept apart here.
Key:
[1] = after inhalation of a hydrogen gas
[2] = system: cecal ligation and puncture (CLP) model mice
Description: (§1) Cecal ligation and puncture (CLP) or sham surgery were performed on 9-week-old C57BL/6 male mice. Then, the CLP model mice were forced to inhale a 7% hydrogen gas. The inhalation time were two hours per day for one group and continuous 24 hours for the other group. The mice were housed in a chamber in which the concentration of a hydrogen gas could be maintained by a constant supply of a hydrogen gas from a gas generating apparatus (MHG-2000α manufactured by MiZ Company Limited), and forced to inhale the hydrogen gas therein. The mice in the control group were forced to inhale air not containing hydrogen. Mice were bred under a hydrogen gas atmosphere for one week, and the survival rate was evaluated. The serum inflammatory cytokine levels were evaluated using a Quantikine ELISA Kit (INFO) at 24 hours after CLP. The liver, the intestine, and the lung of mice were evaluated by RNA sequencing after inhalation of a hydrogen gas. Data were analyzed using Ingenuity Pathways Analysis (IPA: Qiagen Inc.). Additionally, expression of inflammatory genes in the intestine was investigated by RT-PCR.

[3] = CLP model mice, hydrogen gas treatment group; comparison value 74 mg/dL
Description: as §1

[4] = system: genes related to glycolysis and gluconeogenesis; inflammatory signal transduction pathways
Description: as §1

IL-6 = conditions: 24 hours after CLP
Description: as §1

TNF-α = conditions: 24 hours after CLP
Description: as §1

[5] = room temperature, normal pressure; cited from earlier work

Compound: [HH] [hydrogen gas, molecular hydrogen]
- time for hydrogen to reach the liver [1]: ≥ 10 min
- time for hydrogen to reach the lung [1]: rapidly
- survival rate ([2]; 7% hydrogen gas, continuous inhalation over 24 hours for 7 days, control 40%, p<0.05, n=20 vs. 20): 75%
- survival rate ([2]; continuous inhalation time increased to five hours, 12 hours, and 24 hours): improved
- survival rate vs control ([2]; continuous inhalation time per day one hour): no difference from control was observed
- survival rate vs control ([2]; continuous inhalation time two hours): differences started to be observed
- blood glucose level [3]: 127 mg/dL
- change in levels of genes vs control ([4]; hydrogen inhalation time two hours or longer per day): differences started to be observed
- inflammatory signal transduction pathways (acute phase response signaling, STAT pathway), z-scores ([4]; liver and intestine of the CLP model at 24 hours): inactive
- genes related to glycolysis and gluconeogenesis ([4]; liver, GO and pathway enrichment analysis): upregulation
- serum IL-6 level (IL-6): attenuated
- serum TNF-α level (TNF-α): attenuated
- concentration dissolved in water (solubility) [5]: approximately 1.6 ppm

Source: US20210275577A1, “MOLECULAR HYDROGEN-CONTAINING COMPOSITION FOR REGULATING INTRACELLULAR SIGNAL TRANSDUCTION” (MiZ Company Limited, priority 2020, published 2021)
